In ChEMBL document CHEMBL1201862, “PubChem BioAssay data set” (2004):
Activity calls are given as the source filed them.

Tests used:
Beta-galactosidase = Beta-galactosidase (Escherichia coli, UniProt Q8VNN2); assay: Dose response counterscreen for EBI2 assay utilizing the enzyme, b-galactosidase.; assay type: functional
[1] = HeLa cell cytotoxicity, dose response, cytotoxicity control for MgcRacGAP inhibitor project (AID 624300); assay type: functional
[2] = target: T1, Rac GTPase-activating protein 1 (Homo sapiens, UniProt Q9H0H5); assay: MgcRacGAP GTPase-activating activity inhibitors, confirmation, biochemical, ADP Hunter fluorescence, primary and confirmatory (AID 624330); assay type: functional
T1 sequence (Q9H0H5 whole entry): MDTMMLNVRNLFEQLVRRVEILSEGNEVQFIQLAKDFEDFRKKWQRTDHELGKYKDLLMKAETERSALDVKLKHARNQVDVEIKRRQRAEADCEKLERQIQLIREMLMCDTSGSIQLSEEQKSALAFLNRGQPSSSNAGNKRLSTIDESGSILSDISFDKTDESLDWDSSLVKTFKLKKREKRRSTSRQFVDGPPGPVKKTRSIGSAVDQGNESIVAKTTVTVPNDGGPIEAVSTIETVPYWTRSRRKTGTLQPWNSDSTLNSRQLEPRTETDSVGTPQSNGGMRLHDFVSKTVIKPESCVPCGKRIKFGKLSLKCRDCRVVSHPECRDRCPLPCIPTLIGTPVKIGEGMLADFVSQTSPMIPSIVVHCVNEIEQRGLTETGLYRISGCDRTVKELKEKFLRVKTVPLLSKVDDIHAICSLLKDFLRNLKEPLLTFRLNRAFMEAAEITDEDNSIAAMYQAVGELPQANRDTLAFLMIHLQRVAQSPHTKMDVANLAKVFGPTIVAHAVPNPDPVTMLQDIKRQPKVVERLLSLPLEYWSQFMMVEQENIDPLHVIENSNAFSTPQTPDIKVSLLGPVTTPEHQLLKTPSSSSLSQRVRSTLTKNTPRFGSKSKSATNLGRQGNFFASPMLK

[3] = human group III sPLA2 inhibitors, dose response, biochemical, QFRET, IC50 (AID 743457);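 note: green fluorescence rise as the enzyme cleaves BODIPY PC-A2 in liposomes; potency for inhibition of the enzyme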
Streptococcus = assay: Group A Streptococcus viability loss, dose response, counter-screen for streptokinase expression inhibitor project, luminescence, BacTiterGlo (AID 1915); assay type: functional, organism-based;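 note: potency for reduction of bacterial viability or growth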
[4] = system: Streptococcus sp. 'group A'; assay: growth inhibition of control SK(-) GAS strain, dose response, counter-screen for streptokinase expression inhibitor project, luminescence, kanamycin, BacTiterGlo, confirmation (AID 1900); assay type: functional, organism-based
[5] = intracellular Trypanosoma cruzi inhibitors in host cells – cell-based, plate reader, cherry-pick samples, set 3, dose response (AID 651818); assay type: functional;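 note: compounds incubated with infected cells for about four days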
[6] = NIH/3T3 fibroblast cytotoxicity, dose response, cytotoxicity control for T. cruzi growth inhibitor project, cell-based, cherry-pick samples, set 2 (AID 651817); assay type: functional; conditions: NIH3T3
cells [7] = assay type: functional, cell-based
[8] = target: T2, Trace amine-associated receptor 1 (Homo sapiens, UniProt Q96RJ0); assay: Counterscreen for agonists of the human trace amine associated receptor 1 (hTAAR1): Fluorescence-based cell-based high throughput dose response assay to identify hTAAR1 agonist that also desensitize TAAR1 receptor response.; assay type: functional
T2 sequence (Q96RJ0 whole entry): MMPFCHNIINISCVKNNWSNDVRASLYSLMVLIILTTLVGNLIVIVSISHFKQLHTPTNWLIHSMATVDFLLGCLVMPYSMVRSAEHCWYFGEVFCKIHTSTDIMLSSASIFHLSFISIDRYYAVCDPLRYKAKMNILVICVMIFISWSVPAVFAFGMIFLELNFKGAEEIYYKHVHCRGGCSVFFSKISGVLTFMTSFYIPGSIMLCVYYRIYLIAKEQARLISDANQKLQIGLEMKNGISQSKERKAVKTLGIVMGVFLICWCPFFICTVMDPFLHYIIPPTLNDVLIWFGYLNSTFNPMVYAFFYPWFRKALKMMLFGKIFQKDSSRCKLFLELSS

[9] = target: T2, Trace amine-associated receptor 1; assay: Fluorescence-based cell-based high throughput dose response assay to identify agonists of the human trace amine associated receptor 1 (TAAR1).; assay type: functional
cells [10] = assay type: functional, cell-based; remark: listed apart in the source
HeLa = assay: HeLa cell cytotoxicity, dose response, cytotoxicity control, ATP luminescence, cherry-pick samples (AID 687004); assay type: functional, cell-based; conditions: Homo sapiens

Beta-galactosidase, sequence (Q8VNN2 whole entry): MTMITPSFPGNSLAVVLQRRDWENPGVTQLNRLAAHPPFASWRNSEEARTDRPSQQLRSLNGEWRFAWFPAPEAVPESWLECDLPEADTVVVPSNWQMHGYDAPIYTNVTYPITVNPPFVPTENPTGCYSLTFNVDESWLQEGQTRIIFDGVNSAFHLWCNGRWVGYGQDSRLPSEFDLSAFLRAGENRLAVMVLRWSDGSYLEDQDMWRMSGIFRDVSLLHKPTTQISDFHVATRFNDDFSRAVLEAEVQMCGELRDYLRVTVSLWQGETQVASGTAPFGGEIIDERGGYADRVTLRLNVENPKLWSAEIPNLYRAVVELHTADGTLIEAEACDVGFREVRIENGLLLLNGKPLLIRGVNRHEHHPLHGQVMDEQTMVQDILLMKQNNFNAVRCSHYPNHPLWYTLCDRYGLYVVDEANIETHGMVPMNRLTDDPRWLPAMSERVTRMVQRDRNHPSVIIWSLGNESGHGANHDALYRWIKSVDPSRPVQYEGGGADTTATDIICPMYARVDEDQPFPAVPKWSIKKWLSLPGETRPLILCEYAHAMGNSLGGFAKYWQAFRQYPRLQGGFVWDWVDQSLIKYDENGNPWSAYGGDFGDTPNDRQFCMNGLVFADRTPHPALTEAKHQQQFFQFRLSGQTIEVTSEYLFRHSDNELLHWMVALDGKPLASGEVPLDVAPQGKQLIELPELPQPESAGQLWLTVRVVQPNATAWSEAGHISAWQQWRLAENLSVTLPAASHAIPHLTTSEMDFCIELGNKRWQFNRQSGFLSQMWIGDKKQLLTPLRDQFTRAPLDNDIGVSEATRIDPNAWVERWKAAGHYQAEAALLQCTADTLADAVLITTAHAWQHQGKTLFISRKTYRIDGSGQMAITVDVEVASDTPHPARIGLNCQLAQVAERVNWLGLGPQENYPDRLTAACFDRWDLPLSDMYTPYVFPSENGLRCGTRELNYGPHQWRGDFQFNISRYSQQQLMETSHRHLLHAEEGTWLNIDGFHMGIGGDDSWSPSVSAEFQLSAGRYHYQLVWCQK

Which IC50 (Beta-galactosidase) does the source give for `Cc1ccc(S(=O)(=O)N2CCN(C(=O)COc3ccc(Br)cc3)CC2)cc1` here?
Its IC50 is > 80 µM (inactive).

What does the source list for `CC1CC(=O)N(c2ccc(NCCc3ccc(O)cc3)c([N+](=O)[O-])c2)C1=O` (stereo not given)?
CC50 [1]: 100 µM (active); IC50 [2]: 52.9 µM (active)

Which IC50 [3] does the source give for `COc1ccc(/C=C/C(=O)NC(=S)NNC(=O)c2ccco2)cc1` here?
The IC50 was 34.9 µM (inactive).

And the EC50 (Streptococcus)?
Its EC50 is 3.29 µM (active).

And the EC50 [4]?
The EC50 was 1.72 µM (active).

For `C[C@H](CO)N1C[C@H](C)[C@@H](CN(C)Cc2ccccc2)Oc2c(NC(=O)c3ccncc3)cccc2C1=O`, which AC50 [5] is on record?
Its AC50 is 0.179 µM (active).

What about the AC50 [6] of the same compound?
The AC50 was 39 µM (inactive).

For `COc1ccc(-c2cn(-c3ccc(OC)cc3)c(S)n2)cc1`, which IC50 (Beta-galactosidase) is on record?
Its IC50 is > 80 µM (inactive).

For `CC1(C)CC(=O)C(C(=O)/C=C/NCCc2ccccc2)C(=O)C1`, which EC50 (cells [7]) is on record?
Its EC50 is > 29.9 µM (inactive).

And the IC50 [8]?
Its IC50 is 7.8 µM (active).

And the EC50 [9]?
Its EC50 is 1.46 µM (active).

What about the IC50 (cells [10]) of the same compound?
Its IC50 is > 29.9 µM (inactive).

With `CO[C@H]1CN(C)C(=O)c2cc(NS(=O)(=O)CC(F)(F)F)ccc2OC[C@@H](C)N(Cc2cccnc2)C[C@@H]1C` as the compound, how does the AC50 (HeLa) read?
Its AC50 is 21.5 µM (active).

For `Cc1ccc2cc(NC(=O)c3ccccc3)ccc2n1`, which AC50 (HeLa) is on record?
The AC50 was > 52 µM (inactive).
